Laboratory results published in EP1372636B1, “METRONOMIC DOSING OF TAXANES FOR INHIBITING TUMOR GROWTH” (Bristol-Myers Squibb Company, priority 2001, dated 2002).
Read-outs that look alike come from different tables or passages of the source.

Experiments:
[1] = system: human umbilical vein endothelial cell (HUVEC); test: HUVEC proliferation (3H-thymidine incorporation); type: cell-based; details: for IC50: Homo sapiens, HUVEC, read-out: IC50 in Cells HUVEC
Description: (§4) Primary human umbilical vein endothelial cells (HUVEC) were purchased from CLONETICS Inc. (San Diego, CA) and used at passage 2 to 3. Proliferation was measured using ^3H-thymidine incorporation in cells by pulsing twenty-four hours prior to harvesting cell cultures. The human breast carcinoma line H3396 was used to assess activity of compound on tumor cells. Cells (2 x 10^3) were plated on collagen IV coated 96 well plates. Twenty-four hours later, compounds were added at varying concentrations. After 48 hours, ^3H-thymidine was added and cells were allowed to incorporate this label over a twenty-four hour period. Cellular extracts were harvested onto glass filters and incorporated radioactivity was determined by counting in a Beta scintillation counter. The IC50, defined as the drug concentration that causes 50% inhibition of ^3H-thymidine incorporation, was extrapolated from the plotted data.

[2] = system: human breast carcinoma line H3396; test: H3396 tumor cell proliferation (3H-thymidine incorporation); type: cell-based
Description: as §4

HUVEC = test: In vitro HUVEC tube formation on […]; type: cell-based, human; design: key: C= complete; P= partial
Description: Angiogenesis results in a network of functional blood vessels that contain red blood cells. In vitro assays that, in part, mimic that process have been established. Primary endothelial cells such as HUVEC when placed on […] (Collaborative Research, Inc.) form a three-dimensional network of tubes that align into cords. In this assay system, tube formation was evaluated on an extracellular protein matrix consisting of […] diluted 1:1 with culture media (EBM-2; CLONETICS, Inc.) and allowed to polymerize for 60 minutes at 37 C. […] Eighteen hours following the plating of cells, the media was removed and cultures were fixed in formalin. Inhibition of tubes on […] is evaluated on an inverted microscope using phase contrast lighting. To determine the effect of compounds in this assay, a descriptive approach was developed. […] Partial inhibition is defined as an incomplete network with a large number of single cells. Complete inhibition is defined as greater than 99% of cells occurring as single cells with no elongated or branching structures. The number of single cells occurring after vehicle treatment (control) is subtracted from the total number of single cells occurring in the treated groups prior to assessing the effects of test compounds for establishing background effects.

[3] = In vivo […] plug angiogenesis model (number of endothelial cells in plugs); design: species or system athymic (nu/nu) Balb/c mice; details: mouse, in vivo, read-out: maximum tolerated dose (MTD)
Description: (§1) LX1 human lung tumor fragments that were maintained by serial subcutaneous passage in athymic (nu/nu) Balb/c mice were implanted subcutaneously as small fragments approximately 0.1 mm^3 in size. Tumor volume doubling time for this tumor in these studies was 2.8 days. When tumors reached the size range of 150-200 mm^3, liquid […] was injected subcutaneously on the side contralateral to the tumor. Treatment was initiated 24 hours later at varying doses and schedules. Prior to implanting, […] is prepared by placing solidified […] on ice overnight at 4 C in accordance with the method described by Passiniti et al. (Lab. Invest. 1992 67:519-28). At the liquid phase and while on ice, VEGF and bFGF (Peprotech, Inc. Rocky Hill, NJ) is added to the […] at final respective concentrations of 75 ng/ml and 300 ng/ml. Stock solutions of these growth factors are made fresh at […] in PBS. Twenty-four hours following final treatment, animals were sacrificed by cervical dislocation and […] plugs from treated and control animals were excised and fixed for at least 48 hours in 10% neutral buffered formalin. These plugs were then processed for paraffin embedding and sectioned at 5 µm thickness followed by staining with hematoxylin and eosin prior to quantitative analysis. The number of endothelial cells in plugs was quantitated using the IMAGEPRO PLUS software (Media Cybernetics, Inc., Silver Spring, MD) at a magnification of 20x. Fifty fields of view from each plug were used for counting the number of endothelial cells. The number of cells were summarized and compared statistically to controls.
(§2) Angiogenesis is evaluated in these plugs as the number of endothelial cells migrating into plugs from compound treated groups relative to the vehicle treated group. Tumors were implanted for the purpose of monitoring the anti-tumor effects of these compounds throughout these studies in order to assure compound efficacy at the therapeutic doses.
(§3) For TAXOL, normal saline was used as the diluent and delivery was made intravenously. For the oral taxane of Formula I, sterilized water was used as the diluent and delivery was by oral gavage.

[4] = system: endothelial cells occurring in MATRIGEL plugs; test: as above; design: species or system athymic (nu/nu) Balb/c mice; details: q2dx5; for reduction of cell number in plugs: oral gavage
Description: as §1, §2, §3

[5] = Oral bioavailability in the rat; type: in vivo
[6] = Oral bioavailability in the dog; type: in vivo
[7] = system: mammary 16/C murine carcinoma; test: Staged subcutaneous mammary 16/C carcinoma in mice, gross log cell kill; type: in vivo, C3H mice
Source text: The final concentrations of each component of the vehicle was as follows: CREMOPHOR 10%; ethanol 10%; aqueous 80%.
C3H conventional mice were purchased from Harlan-Sprague Dawley (Indianapolis, IN) and fed mouse chow and water ad libitum.
The metastatic mammary 16/C murine carcinoma was propagated biweekly in C3H mice. Experiments were initiated by subcutaneous insertion by trocar of tumor fragments.
For in vivo tumor testing, the C3H mice were implanted subcutaneously with mammary 16/C tumor fragments. All treatments were initiated on Day 10 post-tumor implant, except for an untreated control group. All groups contained 8 mice. Tumors were measured once or twice weekly and dimensions were converted to weights using the formula Weight (milligrams)= a x b^2, where a=length and b=width (in millimeters). The median time for tumors within each group of mice to reach 1 gram was determined and the delays in median time to reach 1 gram tumor target size for treated (T) versus control (C) groups was calculated. These delays in tumor growth (T-C value in days) were further converted to gross log cell kill (LCK) values using the formula T-C/(tumor volume doubling time, TVDT, of the control group) x (3.32). A LCK of greater than or equal to 1 LCK was considered an active result. Cures were assessed at the end of each experiment and defined in the absence of a tumor mass of greater than 35 milligrams. Experiments were terminated more than 10 x TVDT following the completion of all treatments.

Source text for L2987 human lung tumor: L2987 human lung tumors were implanted and allowed to reach 50 to 100 mm^3 before drug administration.

## COC(=O)O[C@@]12CO[C@@H]1C[C@H](O)[C@@]1(C)C(=O)[C@H](OC(C)=O)C3=C(C)[C@@H](OC(=O)[C@H](O)[C@@H](NC(=O)OC(C)(C)C)C(C)(C)C)C[C@@](O)([C@@H](OC(=O)c4ccccc4)[C@H]21)C3(C)C [Formula I, 3'-tert-Butyl-3'-N-tert-butyloxycarbonyl-4-deacetyl-3'-dephenyl-3'-N-debenzoyl-4-O-methoxycarbonyl-paclitaxel]
[1]
  IC50: 2 nM
[2]; H3396, read-out: IC50 in Cells H3396, 3H-thymidine incorporation, two separate experiments (two columns)
  IC50: 2 nM
HUVEC; 0.0005µM
  Inhibition of HUVEC Tube Formation on MATRIGEL: P
HUVEC; 0.0050µM
  Inhibition of HUVEC Tube Formation on MATRIGEL: P
HUVEC; 0.0500µM
  Inhibition of HUVEC Tube Formation on MATRIGEL: C
HUVEC; 0.5000µM
  Inhibition of HUVEC Tube Formation on MATRIGEL: C
HUVEC; 5.000µM
  Inhibition of HUVEC Tube Formation on MATRIGEL: C
[3]; po
  MTD: 60 mg/kg
[4]; 18 mg/kg
  reduction of cell number in plugs: greater than 50%
[4]; 36 mg/kg
  reduction of cell number in plugs: greater than 50%
[4]; 60 mg/kg (MTD)
  reduction of cell number in plugs: greater than 50%
[5]
  oral bioavailability: good
[6]
  oral bioavailability: good
L2987 human lung tumor; 20 mg/kg orally, metronomic schedule q2dx15
  weight loss: no weight loss was observed
L2987 human lung tumor; 20 mg/kg orally, metronomic schedule q2dx15 (cumulative 300 mg/kg)
  tumor growth: suppressed tumor growth
L2987 human lung tumor; 60 mg/kg orally, standard schedule q2dx5
  weight loss: weight loss was also observed
L2987 human lung tumor; 60 mg/kg orally, standard schedule q2dx5 (cumulative 300 mg/kg), compared with metronomic regime
  anti-tumor response: greater anti-tumor response

## CC(=O)O[C@H]1C(=O)[C@@]2(C)[C@H]([C@H](OC(=O)c3ccccc3)[C@]3(O)C[C@H](OC(=O)[C@H](O)[C@@H](NC(=O)c4ccccc4)c4ccccc4)C(C)=C1C3(C)C)[C@]1(OC(C)=O)CO[C@@H]1C[C@@H]2O [TAXOL, paclitaxel]
[1]; 3H-thymidine incorporation, two separate experiments (two columns)
  IC50: 3 nM
[1]; ratio of IC50 in H3396 to IC50 in HUVEC
  H3396/HUVEC: 0.88
[2]; H3396, 3H-thymidine incorporation, two separate experiments (two columns), read-out: IC50 in Cells H3396
  IC50: 3 nM
HUVEC; 0.0005µM
  Inhibition of HUVEC Tube Formation on MATRIGEL: P
HUVEC; 0.0050µM
  Inhibition of HUVEC Tube Formation on MATRIGEL: P
HUVEC; 0.0500µM
  Inhibition of HUVEC Tube Formation on MATRIGEL: C
HUVEC; 0.5000µM
  Inhibition of HUVEC Tube Formation on MATRIGEL: C
HUVEC; 5.000µM
  Inhibition of HUVEC Tube Formation on MATRIGEL: C
[3]; athymic (nu/nu) Balb/c, intravenous
  MTD: 24 mg/kg
[4]; 24 mg/kg (MTD), intravenously
  reduction in cell number in MATRIGEL plugs compared to control groups: greater than 50%
[7]; Paclitaxel 20 mg/kg/inj qd 10-14 iv, no Formula I, Paclitaxel 20 mg/kg/inj qd 32-36 iv
  Gross LCK: 4.5
[7]; Paclitaxel 20 mg/kg/inj qd 10-14 iv, no Formula I, Paclitaxel 30 mg/kg/inj qd 32-36 iv
  Gross LCK: 4.7
[7]; Paclitaxel 30 mg/kg/inj qd 10-14 iv alone (single course)
  Gross LCK: 1.9
[7]; Paclitaxel 30 mg/kg/inj qd 10-14 iv alone, Cures assessed on Day 60
  cures/total: 2/8
[7]; Paclitaxel 45 mg/kg/inj qd 10-14 iv alone (single course)
  Gross LCK: 1.9
[7]; Paclitaxel 45 mg/kg/inj qd 10-14 iv alone, Cures assessed on Day 60 post tumor implant
  cures/total: 1/8
[7]; Paclitaxel 20 qd 10-14 iv, no Formula I, Paclitaxel 30 qd 32-36 iv, Cures assessed on Day 88
  cures/total: 1/8
[7]; Paclitaxel 30 qd 10-14 iv, no Formula I, Paclitaxel 30 qd 32-36 iv, Cures assessed on Day 88 post-tumor implant, listed as Paclitaxel
  cures/total: 2/8
[7]; Paclitaxel 30 qd 10-14 iv, no Formula I, Paclitaxel 30 qd 32-36 iv, Cures assessed on Day 88 post-tumor implant, listed as paclitaxel
  cures/total: 2 of 8
[7]; qdx5, iv, beginning on Day 10 post-tumor implant
  MTD regimen: 45 mg/kg/injection
